Results taken from patent US6191127A, “Substituted heterocycles and their use in medicaments” (Schering Aktiengesellschaft, priority 1997, dated 2001).

Key:
Assay type in all cases: biochemical
[1] = biological target: recombinant human endothelial NO-synthases (ecNOS) (Homo sapiens, UniProt P29474); assay: Inhibition assay with recombinant human endothelial NO-synthases (ecNOS); conditions: substrate [3H]-arginine; analogously to bcNOS
Excerpt: (§1) The NOS-inhibitory action of the compounds of Formula I and their physiologically compatible salts can be determined with the variants that are mentioned below according to the methods by Bredt and Snyder in Proc. Natl. Acad. Sci. USA (1989) 86, 9030.
(§2) Inhibition assay with recombinant human brain NO-synthases (bcNOS). (Concentration: 0.022 IU/l). Measured parameters: % inhibition by test compound. Substrate: [3H]-arginine (concentration 4.4E-08 mol/l). Analogously to recombinant human endothelial NO-synthases (ecNOS) and recombinant human inducible NO-synthases (iNOS).

[2] = biological target: recombinant human inducible NO-synthases (iNOS) (Homo sapiens, UniProt P35228); assay: Inhibition assay with recombinant human inducible NO-synthases (iNOS); conditions: substrate [3H]-arginine; analogously to bcNOS
Excerpt: as §1, §2

[3] = biological target: recombinant human brain NO-synthases (bcNOS) (Homo sapiens, UniProt P29475); assay: Inhibition assay with recombinant human brain NO-synthases (bcNOS); conditions: substrate [3H]-arginine 4.4E-08 mol/l; bcNOS 0.022 IU/l
Excerpt: as §1, §2

| IC50 [1] | IC50 [2] | IC50 [3] | SMILES |
| --- | --- | --- | --- |
| > 100 µM | > 10 µM | 20 µM | Cc1cccc2c1OC(C)C(N)=N2 (stereo not drawn) [2,8-Dimethyl-3-amino-1,4-benzoxazine] |
| > 10 µM | > 100 µM | 3 µM | Cc1cc2c(cc1C)OC(C)C(N)=N2 (stereo not drawn) [2,6,7-Trimethyl-3-amino-1,4-benzoxazine] |
| > 10 µM | > 100 µM | 1.2 µM | CCCC1Oc2ccccc2N=C1N (stereo not drawn) [2-n-Propyl-3-amino-1,4-benzoxazine] |
